Experimental data reported in US6875743B1, “Cell adhesion inhibitors” (Biogen, Inc., priority 1996, dated 2005).
Square brackets hold non-standard residues; d marks the D form. Peptide text beside a SMILES is read from it. * marks the point of attachment. Quinaldoyl = O=C(c1ccc2ccccc2n1)*; Nle = CCCC[CH](N)C(=O)O; PhAc = O=C(Cc1ccccc1)*; Aib = CC(C)(N)C(=O)O; Bz = O=C(c1ccccc1)*; Bn = c1ccc(C*)cc1

What follows are molecules tested against T1, VLA4 (Homo sapiens, UniProt P05556+P13612) (assay: Inhibition of VLA4-dependent adhesion to BSA-CS1). Settings: binding of BCECF-labelled Ramos cells to BSA-CS1 coated wells, 2 mM MnCl2; read-out: IC50.
T1 construct: endogenous in cells; host or cells: Ramos cells
Type: cell-based
From the text: For example, the cell adhesion inhibitory activity of these compounds may be measured by determining the concentration of inhibitor required to block the binding of VLA-4-expressing cells to fibronectin- or CS1-coated plates. In this assay microtiter wells are coated with either fibronectin (containing the CS-1 sequence) or CS-1. If CS-1 is used, it must be conjugated to a carrier protein, such as bovine serum albumin, in order to bind to the wells. Once the wells are coated, varying concentrations of the test compound are then added together with appropriately labelled, VLA-4-expressing cells. Alternatively, the test compound may be added first and allowed to incubate with the coated wells prior to the addition of the cells. The cells are allowed to incubate in the wells for at least 30 minutes. Following incubation, the wells are emptied and washed. Inhibition of binding is measured by quantitating the fluorescence or radioactivity bound to the plate for each of the various concentrations of test compound, as well as for controls containing no test compound.
VLA-4-expressing cells that may be utilized in this assay include Ramos cells, Jurkat cells, A375 melanoma cells, as well as human peripheral blood lymophocytes (PBLs). The cells used in this assay may be fluorescently or radioactively labelled.
This assay was used to assess the potency of VLA4-directed inhibitory compounds of this invention.
We dissolved BSA-SMCC (Pierce Chemical, Rockford, Ill.; Catalog #77115) in H2O at a concentration of 10 mg/mL. [SEQ ID NO:4]: […](“Cys-Tyr-CS1 peptide”), which we synthesized by conventional solid phase chemistry and purified by HPLC, was dissolved in 10 mM HEPES pH 5, 50 mM NaCl and 0.1 mM EDTA also at a concentration of 10 mg/mL. We then mixed 500 μL of BSA-SMCC, 250 μL of Cys-Tyr-CS1 peptide and 75 μL of 1 mM HEPES pH 7.5 and allowed the conjugation reaction to proceed for 30 minutes. We stopped the reaction by adding 1 μL of beta-mercaptoethanol. Samples were analyzed for cross-linking by SDS-PAGE.
We coated the wells of a Linbro titertek polystyrene 96-well flat bottom plate (Flow Laboratories, Maclean, Va.; catalog #76-231-05) with 100 μL of the above-described BSA-CS1 solution diluted to 1 μg/mL in 0.05 M NaHCO3 (15 mM NaHCO3, 35 mM Na2CO3) pH 9.2. Some wells were not coated with CS1 in order to assess non-specific cell binding (NSB). The plate was then incubated overnight at 4° C.
Following this incubation, the contents of the wells were removed by inverting and blotting the plate. All of the wells were then blocked with 100 μL of 1% BSA in PBS, 0.02% NaN3, for a minimum of one hour at room temperature.
Ramos cells are grown, maintained and labelled in RPMI 1640 culture medium containing 1% BSA. Just prior to running the assay, we added 2′,7′-bis-(2-carboxyethyl)-5 (and -6) carboxyfluorescein acetoxymethyl ester (“BCECF-AM”; Molecular Probes Inc., Eugene, Oreg.; catalog #B-1150) to a final concentration of 2 μM to a culture of Ramos cells (4×10^6 cells/mL). We incubated the cells for 20 minutes at 37° C.
Following labelling, the cells were washed twice in assay buffer (24 mM TRIS, 137 mM NaCl, 2.7 mM KCl, pH 7.4, containing 0.1% BSA and 2 mM glucose) to remove any cations originating from the culture medium. The cells were then resuspended in assay buffer to 4×10^6 cells/mL and 2 mM MnCl2 was added to upregulate VLA4 on the surface of the cells.
Immediately prior to running the assay, we removed the BSA blocking solution from the 96-well plates and washed the wells with 100 μL of assay buffer. We then added to each well 25 μL of test cell adhesion inhibitory compound at 2× the final concentration and 25 μL of the labelled Ramos cells. […] Each concentration of compound was tested in triplicate. The compound and cells are allowed to incubate for 30 minutes at room temperature.

T1 sequence (P13612 34-1032): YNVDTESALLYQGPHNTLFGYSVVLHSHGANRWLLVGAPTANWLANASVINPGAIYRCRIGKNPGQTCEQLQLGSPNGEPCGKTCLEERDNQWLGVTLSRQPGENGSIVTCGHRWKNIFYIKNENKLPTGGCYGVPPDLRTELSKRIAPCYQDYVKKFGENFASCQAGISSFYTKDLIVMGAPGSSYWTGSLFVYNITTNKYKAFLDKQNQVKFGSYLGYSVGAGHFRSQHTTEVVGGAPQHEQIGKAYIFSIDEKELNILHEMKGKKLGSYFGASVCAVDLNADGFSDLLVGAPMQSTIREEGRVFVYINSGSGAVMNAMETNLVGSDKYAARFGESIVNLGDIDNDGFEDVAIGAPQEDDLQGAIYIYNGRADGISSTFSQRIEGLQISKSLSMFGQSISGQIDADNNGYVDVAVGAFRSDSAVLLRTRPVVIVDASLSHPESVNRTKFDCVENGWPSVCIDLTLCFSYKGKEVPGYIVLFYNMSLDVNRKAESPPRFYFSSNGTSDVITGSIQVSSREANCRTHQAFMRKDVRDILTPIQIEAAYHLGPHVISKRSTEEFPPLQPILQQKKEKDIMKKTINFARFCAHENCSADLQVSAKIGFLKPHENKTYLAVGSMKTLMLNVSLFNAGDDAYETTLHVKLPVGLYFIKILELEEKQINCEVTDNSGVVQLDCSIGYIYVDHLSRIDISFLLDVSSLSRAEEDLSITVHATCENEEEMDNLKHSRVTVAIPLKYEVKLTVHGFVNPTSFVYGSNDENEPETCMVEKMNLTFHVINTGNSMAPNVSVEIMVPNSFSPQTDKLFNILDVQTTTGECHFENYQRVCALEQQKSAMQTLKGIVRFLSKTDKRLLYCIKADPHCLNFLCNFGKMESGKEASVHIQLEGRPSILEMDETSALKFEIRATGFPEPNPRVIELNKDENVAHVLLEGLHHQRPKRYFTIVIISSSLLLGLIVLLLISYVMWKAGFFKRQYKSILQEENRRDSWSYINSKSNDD
T1 sequence (P05556 21-798): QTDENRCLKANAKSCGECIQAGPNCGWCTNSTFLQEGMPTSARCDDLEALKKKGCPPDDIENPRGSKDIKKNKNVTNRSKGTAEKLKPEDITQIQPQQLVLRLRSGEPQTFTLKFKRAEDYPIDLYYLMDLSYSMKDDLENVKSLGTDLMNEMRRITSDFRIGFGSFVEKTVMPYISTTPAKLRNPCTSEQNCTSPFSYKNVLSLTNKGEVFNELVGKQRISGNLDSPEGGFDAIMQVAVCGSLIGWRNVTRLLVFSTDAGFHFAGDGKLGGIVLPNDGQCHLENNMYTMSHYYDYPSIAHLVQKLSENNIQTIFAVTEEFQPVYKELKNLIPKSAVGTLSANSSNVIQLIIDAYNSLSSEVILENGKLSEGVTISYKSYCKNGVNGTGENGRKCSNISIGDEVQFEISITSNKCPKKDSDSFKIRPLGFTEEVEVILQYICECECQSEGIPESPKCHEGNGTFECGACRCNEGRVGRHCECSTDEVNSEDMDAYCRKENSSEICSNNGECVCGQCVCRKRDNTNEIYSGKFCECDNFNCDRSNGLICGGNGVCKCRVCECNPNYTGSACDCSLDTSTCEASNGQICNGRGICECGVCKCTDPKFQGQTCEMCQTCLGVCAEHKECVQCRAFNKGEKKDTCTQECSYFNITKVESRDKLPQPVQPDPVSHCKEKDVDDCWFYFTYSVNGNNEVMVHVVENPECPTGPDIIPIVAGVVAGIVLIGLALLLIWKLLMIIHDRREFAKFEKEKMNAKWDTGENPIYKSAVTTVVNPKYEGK

IC50	Structure (SMILES)
< 50 nM	Cc1ccccc1NC(=O)Nc1ccc(CC(=O)N[C@H](CC(C)C)C(=O)N[C@@H](CC(=O)O)C(=O)N[C@@H](CC(C)C)C(N)=O)cc1 [Compound 287]
> 10000 nM	CC(C)C[C@H](NC(=O)COc1ccc2ccccc2c1)C(=O)N[C@@H](CC(=O)O)C(=O)N[C@H](C(=O)O)C(C)C [Compound 395]
< 50 nM	Cc1ccccc1NC(=O)Nc1ccc(CC(=O)N[C@H](C(=O)N[C@@H](CCC(=O)O)C(=O)N[C@@H](CC(=O)O)C(N)=O)[C@@H](C)O)cc1 [Compound 314]
< 50 nM	Cc1ccccc1NC(=O)Nc1ccc(CC(=O)N[C@@H](CO)C(=O)N[C@@H](CC(=O)O)C(=O)N[C@H](CC(C)C)C(N)=O)cc1 [Compound 278]
< 50 nM	Cc1ccccc1NC(=O)Nc1ccc(CC(=O)N[C@@H](CCC(=O)O)C(=O)N[C@@H](CC(=O)O)C(=O)N[C@H](CC(N)=O)C(N)=O)cc1 [Compound 270]
> 10000 nM	CC[C@H](C)[C@H](NC(=O)[C@@H](CC(=O)O)NC(=O)[C@H](N)C(C)C)C(=O)NCc1ccc(NC(=O)Nc2ccccc2C)cc1 [Compound 344]
< 50 nM	Cc1ccccc1NC(=O)Nc1ccc(CC(=O)N[C@@H](CO)C(=O)N[C@@H](CC(=O)O)C(=O)N[C@@H](CCC(=O)O)C(N)=O)cc1 [Compound 279]
< 50 nM	CSCC[C@H](NC(=O)[C@H](CC(=O)O)NC(=O)[C@H](CC(C)C)NC(=O)Cc1ccc(NC(=O)Nc2ccccc2C)cc1)C(N)=O [Compound 236]
> 10000 nM	Cc1ccccc1NC(=O)Nc1ccc(CC(=O)NC(CC(C)C)C(=O)N2CN(Cc3ccc4c(c3)OCO4)C(=O)C[C@H]2C(=O)O)cc1 (mixture of isomers) [Compound 363]
< 50 nM	CSCC[C@H](NC(=O)[C@H](CC(=O)O)NC(=O)[C@@H](CC(C)C)NC(=O)Cc1ccc(NC(=O)Nc2ccccc2C)cc1)C(N)=O [Compound 292]
< 50 nM	Cc1ccccc1NC(=O)Nc1ccc(CC(=O)N[C@@H](CO)C(=O)N[C@@H](CC(=O)O)C(=O)N[C@H](CO)C(N)=O)cc1 [Compound 285]
< 50 nM	Cc1ccccc1NC(=O)Nc1ccc(CC(=O)N[C@@H](CCC(N)=O)C(=O)N[C@@H](CC(=O)O)C(=O)N[C@@H](CC(C)C)C(N)=O)cc1 [Compound 298]
< 50 nM	Cc1ccccc1NC(=O)Nc1ccc(CC(=O)N[C@@H](CCC(=O)O)C(=O)N[C@@H](CC(=O)O)C(=O)N[C@H](CO)C(N)=O)cc1 [Compound 273]
< 50 nM	Cc1ccccc1NC(=O)Nc1ccc(CC(=O)NC(CCC(N)=O)C(=O)NC(CC(=O)O)C(=O)NC(CO)C(N)=O)cc1 (centres unmarked) [Compound 307]
< 50 nM	Cc1ccccc1NC(=O)Nc1ccc(CC(=O)N[C@@H](CC(C)C)C(=O)N[C@@H](CC(=O)O)C(=O)N[C@H](CCC(=O)O)C(N)=O)cc1 [Compound 238]
> 10000 nM	CC(C)CC(NC(=O)CCCc1ccccc1)C(=O)NC(CC(=O)O)C(=O)NCC1CCCCC1 (centres unmarked) [Compound 25]
> 10000 nM	CC(C)C[C@H](NC(=O)c1cc2ccccc2cn1)C(=O)NC(Cc1nnn[nH]1)C(=O)N[C@H](C(=O)O)C(C)C (some centres unmarked) [Compound 10]
> 10000 nM	CCC(C)C(NC(=O)C(CC(=O)O)NC(=O)C(CC(C)C)NC(=O)Cc1ccccc1)C(=O)OC (stereo not drawn) [Compound 54] (PhAc-Leu-Asp-Ile-OMe; configuration not given here)
< 50 nM	Cc1ccccc1NC(=O)Nc1ccc(CC(=O)N[C@@H](CCC(=O)O)C(=O)N[C@@H](CC(=O)O)C(=O)N[C@@H](CC(C)C)C(N)=O)cc1 [Compound 264]
> 10000 nM	CC(C)CC(NC(=O)CCCCc1ccccc1)C(=O)NC(CC(=O)O)C(=O)NCC1CCCCC1 (centres unmarked) [Compound 26]
50 to 10000 nM	CCC(C)C(NC(=O)C(CC(=O)O)NC(=O)C(CC(C)C)NC(=O)c1ccc2ccccc2n1)C(=O)NC (centres unmarked) [Compound 57]

IC50	Structure (SMILES)
< 50 nM	Cc1ccccc1NC(=O)Nc1ccc(CC(=O)N2CCC[C@H]2C(=O)N[C@@H](CC(=O)O)C(=O)N[C@H](CCC(=O)O)C(N)=O)cc1 [Compound 249]
< 50 nM	Cc1ccccc1NC(=O)Nc1ccc(CC(=O)N[C@H](C(=O)N[C@@H](CC(=O)O)C(=O)N[C@@H](Cc2c[nH]c3ccccc23)C(N)=O)[C@@H](C)O)cc1 [Compound 261]
< 50 nM	CSCC[C@H](NC(=O)[C@H](CC(=O)O)NC(=O)[C@H](CCC(=O)O)NC(=O)Cc1ccc(NC(=O)Nc2ccccc2C)cc1)C(N)=O [Compound 269]
> 10000 nM	CCn1cc(C(=O)N[C@@H](CC(C)C)C(=O)N[C@@H](CC(=O)O)C(=O)N[C@H](C(=O)O)C(C)C)c(=O)c2ccc(C)nc21 [Compound 403]
50 to 10000 nM	COC(=O)[C@@H](NC(=O)[C@H](CC(=O)O)NC(=O)[C@H](CC(C)C)NC(=O)Cc1ccccc1)[C@@H](C)OCc1ccccc1 [Compound 192] (PhAc-Leu-Asp-Thr(Bn)-OMe)
< 50 nM	CSCC[C@H](NC(=O)Cc1ccc(NC(=O)Nc2ccccc2C)cc1)C(=O)N[C@@H](CC(=O)O)C(=O)N[C@H](C(N)=O)C(C)C [Compound 221]
50 to 10000 nM	CCCCC(NC(=O)C(NC(=O)C(CC(=O)O)NC(=O)C(CC(C)C)NC(=O)c1ccc2ccccc2n1)C(C)C)C(=O)O (centres unmarked) [Compound 44] (Quinaldoyl-LDV[Nle]-OH; configuration not given here)
< 50 nM	Cc1ccccc1NC(=O)Nc1ccc(CC(=O)N2CCC[C@H]2C(=O)N[C@@H](CC(=O)O)C(=O)N[C@H](CC(C)C)C(N)=O)cc1 [Compound 244]
> 10000 nM	CC(C)C[C@H](NC(=O)c1ccc(C(C)C)cc1)C(=O)N[C@@H](CC(=O)O)C(=O)N[C@H](C(=O)O)C(C)C [Compound 405]
< 50 nM	Cc1ccccc1NC(=O)Nc1ccc(CC(=O)N2CCC[C@H]2C(=O)N[C@@H](CC(=O)O)C(=O)N[C@H](C(N)=O)[C@@H](C)O)cc1 [Compound 246]
> 10000 nM	CC(C)C[C@H](NC(=O)[C@H](Cc1ccccc1)NC(=O)c1ccccc1)C(=O)N[C@@H](CC(=O)O)C(=O)N[C@H](C(=O)O)C(C)C [Compound 153] (Bz-FLDV-OH)
< 50 nM	CSCC[C@H](NC(=O)Cc1ccc(NC(=O)Nc2ccccc2C)cc1)C(=O)N[C@@H](CC(=O)O)C(=O)N[C@@H](CC(=O)O)C(N)=O [Compound 219]
< 50 nM	Cc1ccccc1NC(=O)Nc1ccc(CC(=O)N2CCC[C@H]2C(=O)N[C@@H](CC(=O)O)C(=O)N[C@@H](Cc2c[nH]c3ccccc23)C(N)=O)cc1 [Compound 250]
< 50 nM	Cc1ccccc1NC(=O)Nc1ccc(CC(=O)N[C@@H](CCC(=O)O)C(=O)N[C@@H](CC(=O)O)C(=O)N[C@@H](Cc2c[nH]c3ccccc23)C(N)=O)cc1 [Compound 272]
> 10000 nM	COC(=O)C1CCCN1C(=O)C(NC(=O)C(CC(=O)O)NC(=O)C(CC(C)C)NC(=O)CCc1ccc(O)cc1)C(C)C (centres unmarked) [Compound 39]
< 50 nM	Cc1ccccc1NC(=O)Nc1ccc(CC(=O)N[C@@H](CO)C(=O)N[C@@H](CC(=O)O)C(=O)N[C@H](C(N)=O)[C@@H](C)O)cc1 [Compound 280]
> 10000 nM	CNC(=O)C(C)(C)NC(=O)[C@H](CC(=O)O)NC(=O)[C@H](CC(C)C)NC(=O)Cc1ccccc1 [Compound 351] (PhAc-Leu-Asp-[Aib]-NHMe)
< 50 nM	CSCC[C@H](NC(=O)Cc1ccc(NC(=O)Nc2ccccc2C)cc1)C(=O)N[C@@H](CC(=O)O)C(=O)N[C@H](CC(C)C)C(N)=O [Compound 222]
> 10000 nM	CCCCCCNC(=O)C(NC(=O)C(CC(=O)O)NC(=O)C(CC(C)C)NC(=O)C1CCc2ccccc2N1)C(C)C (centres unmarked) [Compound 114]
50 to 10000 nM	Cc1ccccc1NC(=O)Nc1ccc(CC(=O)N2CCC2C(=O)N[C@@H](CC(=O)O)C(=O)N[C@H](CC(C)C)C(=O)O)cc1 (some centres unmarked) [Compound 412]
